The results in this text go back to US20150011508A1, “COMPOUNDS AND COMPOSITIONS AS C-KIT KINASE INHIBITORS” (priority 2011, published 2015).

Each structure is given as a SMILES string.

T1 sequence (P10721 26-976): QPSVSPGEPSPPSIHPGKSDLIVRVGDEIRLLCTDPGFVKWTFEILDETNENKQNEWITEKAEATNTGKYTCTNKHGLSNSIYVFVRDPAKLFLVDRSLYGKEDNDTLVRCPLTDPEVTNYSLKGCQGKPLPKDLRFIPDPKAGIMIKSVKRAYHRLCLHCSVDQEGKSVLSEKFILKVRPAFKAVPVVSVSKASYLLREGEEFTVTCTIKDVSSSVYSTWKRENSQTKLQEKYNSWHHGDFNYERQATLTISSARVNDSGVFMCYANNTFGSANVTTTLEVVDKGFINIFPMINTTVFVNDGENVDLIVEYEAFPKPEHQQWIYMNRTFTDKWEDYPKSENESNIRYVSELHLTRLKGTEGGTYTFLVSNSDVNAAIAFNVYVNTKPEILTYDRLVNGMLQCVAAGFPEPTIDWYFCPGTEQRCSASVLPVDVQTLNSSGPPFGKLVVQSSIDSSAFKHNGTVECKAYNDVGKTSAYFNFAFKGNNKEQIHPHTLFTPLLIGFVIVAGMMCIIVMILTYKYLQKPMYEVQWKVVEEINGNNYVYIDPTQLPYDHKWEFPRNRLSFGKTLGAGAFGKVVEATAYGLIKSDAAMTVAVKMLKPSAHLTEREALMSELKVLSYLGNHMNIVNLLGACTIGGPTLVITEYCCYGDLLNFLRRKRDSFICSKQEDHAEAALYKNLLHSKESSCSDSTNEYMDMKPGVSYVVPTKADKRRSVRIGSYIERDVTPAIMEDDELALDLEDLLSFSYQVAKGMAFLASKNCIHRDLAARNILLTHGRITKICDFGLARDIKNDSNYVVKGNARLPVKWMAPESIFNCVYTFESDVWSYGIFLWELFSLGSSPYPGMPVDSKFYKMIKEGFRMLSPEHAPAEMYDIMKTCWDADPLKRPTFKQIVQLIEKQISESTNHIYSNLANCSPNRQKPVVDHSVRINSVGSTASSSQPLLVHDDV

One experiment concerns the target T1, c-kit (Homo sapiens, UniProt P10721).
T1 construct: human Mo7e cells which endogenously express c-kit; endogenous in cells; host or cells: human Mo7e cells (SCF-dependent promegakaryocytic leukemia line)
Description: Mo7e cell proliferation assay (SCF dependent proliferation). The class given is cell-based. As to conditions: Table 2, values marked *: 20% FBS instead of 1% FBS. Here is the method:
Compounds of Formula (I) and Formula (II) provided herein were assayed to measure their capacity to inhibit c-kit and PDGFR kinases using the appropriate assay described below: c-Kit inhibition was evaluated using the Mo7e cell proliferation assay, and PDGFR inhibition was evaluated using the Rat A10 cell proliferation assay and the Human TGHA-VSMC cell proliferation assay.
The compounds of Table 1 and Table 2 were tested for inhibition of SCF dependent proliferation using human Mo7e cells which endogenously express c-kit in a 384 well format. […] After 48 hours of incubation at 37° C., cell viability was measured by adding 25 uL of CellTiter Glo (Promega) to the cells and the luminescence was measured by a CLIPR CCD camera (Molecular Devices).
The IC50 value is given as that concentration of the test compound in question that provoke a response halfway between the baseline and maximum responses.
In general, IC50 refers to the concentration needed to halve the response being measured. The molecule `COCc1noc(-c2ccc(C)c(NC(=O)c3cnc4ccccn34)c2)n1` [F108] registered a 50% inhibitory concentration (IC50) of 716 nM.

Staying with this experiment, now noted: Table 2; human Mo7e cells stimulated with human recombinant SCF, 48 h, CellTiter Glo; 1% FBS (footnote).
In the case of `Cc1ccc(-c2noc(C(C)(C)CO)n2)cc1NC(=O)c1cnc2ccccn12` [F109], the IC50 is 682 nM.

On to `Cc1ccc(-c2noc(CCCS(N)(=O)=O)n2)cc1NC(=O)c1cnc2ccccn12` [F110], for which the IC50 came out at 367 nM.

For `Cc1ccc(-c2noc(CCCNC(=O)OC(C)(C)C)n2)cc1NC(=O)c1cnc2ccccn12` [F111], the IC50 is 364 nM.

`Cc1ccc(-c2noc(CCCN)n2)cc1NC(=O)c1cnc2ccccn12` [F112]: the IC50 worked out at 174 nM.

In the case of `CC(=O)NCCc1nc(-c2ccc(C)c(NC(=O)c3cnc4ccccn34)c2)no1` [F113], the IC50 was determined as 689 nM.

As to `Cc1ccc(-c2noc(CCNS(C)(=O)=O)n2)cc1NC(=O)c1cnc2ccccn12` [F114], the IC50 turned out to be 409 nM.

In the case of `Cc1ccc(-c2noc(CCCNS(C)(=O)=O)n2)cc1NC(=O)c1cnc2ccccn12` [F115], the IC50 was 772 nM.

In the case of `Cc1ccc(-c2noc(CCS(N)(=O)=O)n2)cc1NC(=O)c1cnc2ccccn12` [F116], the IC50 was 735 nM.

For the molecule `Cc1ccc(-c2noc(CCC(N)=O)n2)cc1NC(=O)c1cnc2ccccn12` [F117, N-(5-(5-(3-amino-3-oxopropyl)-1,2,4-oxadiazol-3-yl)-2-methylphenyl)imidazo[1,2-a]pyridine-3-carboxamide], the 50% inhibitory concentration (IC50) is 803 nM.

Turning to `CCNC(=O)CCc1nc(-c2ccc(C)c(NC(=O)c3cnc4ccccn34)c2)no1` [F118], the IC50 was found to be 527 nM.

Turning to `Cc1ccc(-c2noc(CCC(C)(C)O)n2)cc1NC(=O)c1cnc2ccccn12` [F119], the IC50 is 112 nM.

On to `CCOC(=O)NCCc1nc(-c2ccc(C)c(NC(=O)c3cnc4ccccn34)c2)no1` [F120], for which the IC50 amounted to 248 nM.

`Cc1ccc(-c2noc(CCC(C)O)n2)cc1NC(=O)c1cnc2ccccn12` (stereo not shown) [F121]: the IC50 is 104 nM.

On to `COC(=O)NCCc1nc(-c2ccc(C)c(NC(=O)c3cnc4ccccn34)c2)no1` [F122], for which the IC50 was found to be 326 nM.

With `COCCOC(=O)NCCc1nc(-c2ccc(C)c(NC(=O)c3cnc4ccccn34)c2)no1` [F123], the 50% inhibitory concentration (IC50) is 305 nM.

For `Cc1ccc(-c2noc(CO)n2)cc1NC(=O)c1cnc2ccccn12` [F124], the IC50 was found to be 217 nM.

Take `Cc1ccc(-c2noc([C@H](C)N)n2)cc1NC(=O)c1cnc2ccccn12` [F125]: the IC50 worked out at 889 nM.

Consider `Cc1ccc(-c2noc([C@@H](C)NC(=O)OC(C)(C)C)n2)cc1NC(=O)c1cnc2ccccn12` [F126], for which the IC50 was 102 nM.

Consider `Cc1ccc(-c2noc([C@@H](C)N)n2)cc1NC(=O)c1cnc2ccccn12` [F127], for which the IC50 is 196 nM.

For the molecule `COC(=O)NCc1nc(-c2ccc(C)c(NC(=O)c3cnc4ccccn34)c2)no1` [F128], the IC50 stood at 113 nM.

For the molecule `Cc1ccc(-c2noc(CNS(C)(=O)=O)n2)cc1NC(=O)c1cnc2ccccn12` [F129], the IC50 is 124 nM.

Consider `COCc1nc(-c2ccc(C)c(NC(=O)c3cnc4ccccn34)c2)no1` [F130], for which the IC50 is 142 nM.

On to `COCCNC(=O)OCc1nc(-c2ccc(C)c(NC(=O)c3cnc4ccccn34)c2)no1` [F131], for which the IC50 came to 139 nM.

Regarding `COCC(=O)NCc1nc(-c2ccc(C)c(NC(=O)c3cnc4ccccn34)c2)no1` [F132], the IC50 came to 319 nM.

Consider `CO[C@@H](C)C(=O)NCc1nc(-c2ccc(C)c(NC(=O)c3cnc4ccccn34)c2)no1` [F133], for which the IC50 was found to be 183 nM.

Take `Cc1ccc(-c2noc(CNC(=O)C(C)(C)O)n2)cc1NC(=O)c1cnc2ccccn12` [F134]: the IC50 amounted to 173 nM.

Consider `COC(=O)N[C@@H](C)c1nc(-c2ccc(C)c(NC(=O)c3cnc4ccccn34)c2)no1` [F135], for which the IC50 was determined as 166 nM.

As for `Cc1ccc(-c2noc([C@H](C)NS(C)(=O)=O)n2)cc1NC(=O)c1cnc2ccccn12` [F136], the IC50 was 145 nM.

As to `COC(=O)N[C@H](C)c1nc(-c2ccc(C)c(NC(=O)c3cnc4ccccn34)c2)no1` [F137], the IC50 turned out to be 193 nM.

Consider `Cc1ccc(-c2noc(CC(C)(C)O)n2)cc1NC(=O)c1cnc2ccccn12` [F138], for which the IC50 came out at 233 nM.

Turning to `COCCCc1nc(-c2ccc(F)c(NC(=O)c3cnc4ccccn34)c2)no1` [F139], the IC50 was 394 nM.

Take `CC(=O)N[C@@H](C)c1nc(-c2ccc(C)c(NC(=O)c3cnc4ccccn34)c2)no1` [F140]: the IC50 is 1340 nM.

For the molecule `CC(=O)NCc1nc(-c2ccc(C)c(NC(=O)c3cnc4ccccn34)c2)no1` [F141], the IC50 worked out at 867 nM.

Take `Cc1ccc(-c2noc(C[C@@H](C)NC(=O)OC(C)(C)C)n2)cc1NC(=O)c1cnc2ccccn12` [F142]: the IC50 turned out to be 294 nM.

`Cc1ccc(-c2noc(C(C)(C)NC(=O)OC(C)(C)C)n2)cc1NC(=O)c1cnc2ccccn12` [F143]: the IC50 was 201 nM.

For `Cc1ccc(-c2noc(CN(C)S(C)(=O)=O)n2)cc1NC(=O)c1cnc2ccccn12` [F144, N-(2-methyl-5-(5-((N-methylmethylsulfonamido)methyl)-1,2,4-oxadiazol-3-yl)phenyl)imidazo[1,2-a]pyridine-3-carboxamide], the IC50 amounted to 156 nM.

Take `CCNCc1nc(-c2ccc(C)c(NC(=O)c3cnc4ccccn34)c2)no1` [F145]: the IC50 stood at 219 nM.

Take `Cc1ccc(-c2noc(CC(=O)O)n2)cc1NC(=O)c1cnc2ccccn12` [F146]: the IC50 came to 381 nM.

As for `Cc1ccc(-c2noc(C(C)(C)NS(C)(=O)=O)n2)cc1NC(=O)c1cnc2ccccn12` [F147], the half-maximal inhibitory concentration (IC50) worked out at 457 nM.

`COC(=O)NC(C)(C)c1nc(-c2ccc(C)c(NC(=O)c3cnc4ccccn34)c2)no1` [F148]: the IC50 was determined as 208 nM.

On to `Cc1ccc(-c2noc(C[C@@H](C)NS(C)(=O)=O)n2)cc1NC(=O)c1cnc2ccccn12` [F149], for which the IC50 turned out to be 220 nM.

Take `COC(=O)N[C@H](C)Cc1nc(-c2ccc(C)c(NC(=O)c3cnc4ccccn34)c2)no1` [F150]: the IC50 came out at 196 nM.

Consider `COCCCN(Cc1nc(-c2ccc(C)c(NC(=O)c3cnc4ccccn34)c2)no1)C(=O)C(F)(F)F` [F151], for which the IC50 was 134 nM.

Turning to `CC(C)(C)OC(=O)NCc1nc(-c2ccc(F)c(NC(=O)c3cnc4ccccn34)c2)no1` [F152], the IC50 turned out to be 207 nM.

Consider `O=C(Nc1cc(-c2noc(CC(O)(C(F)(F)F)C(F)(F)F)n2)ccc1F)c1cnc2ccccn12` [F153], for which the IC50 was determined as 246 nM.

As to `Cc1ccc(-c2noc(CNC(=O)CCC(F)(F)F)n2)cc1NC(=O)c1cnc2ccccn12` [F154], the IC50 amounted to 182 nM.

`COCCOCc1nc(-c2cc(NC(=O)c3cnc4ccccn34)c(C)cc2F)no1` [F155]: the IC50 was 396 nM.

For the molecule `Cc1cc(F)c(-c2noc(CNC(=O)OC(C)(C)C)n2)cc1NC(=O)c1cnc2ccccn12` [F156], the IC50 was determined as 198 nM.

With `Cc1ccc(-c2noc(CNC(=O)OCCF)n2)cc1NC(=O)c1cnc2ccccn12` [F157], the IC50 is 155 nM.

Consider `COC(=O)NCc1nc(-c2ccc(C)c(NC(=O)c3cnc4cc(C#N)ccn34)c2)no1` [F158], for which the 50% inhibitory concentration (IC50) amounted to 779 nM.

For `COC(=O)NCc1nc(-c2ccc(C)c(NC(=O)c3cnc4cc(F)ccn34)c2)no1` [F159], the IC50 was 184 nM.

On to `Cc1ccc(-c2noc(C(F)F)n2)cc1NC(=O)c1cnc2ccccn12` [F160], for which the IC50 came out at 480 nM.

In the case of `Cc1ccc(-c2noc(CF)n2)cc1NC(=O)c1cnc2ccccn12` [F161], the 50% inhibitory concentration (IC50) turned out to be 173 nM.

For the molecule `Cc1ccc(-c2noc(C(O)C(F)(F)F)n2)cc1NC(=O)c1cnc2ccccn12` (stereo not shown) [F162], the IC50 amounted to 266 nM.

Consider `Cc1ccc(-c2noc(COCCO)n2)cc1NC(=O)c1cnc2ccccn12` [F163], for which the half-inhibitory concentration (IC50) was 192 nM.

Regarding `Cc1ccc(-c2noc(CNC(=O)N(C)C)n2)cc1NC(=O)c1cnc2ccccn12` [F164], the IC50 was found to be 965 nM.

Consider `COCCOC(=O)NCc1nc(-c2ccc(C)c(NC(=O)c3cnc4ccccn34)c2)no1` [F165], for which the IC50 was determined as 512 nM.

`Cc1ccc(-c2noc(CNC(=O)CCOCC(F)(F)F)n2)cc1NC(=O)c1cnc2ccccn12` [F166]: the IC50 is 213 nM.

In the case of `COC(=O)NCc1nc(-c2ccc(C)c(NC(=O)c3cnc4ccc(F)cn34)c2)no1` [F167, methyl (3-(3-(6-fluoroimidazo[1,2-a]pyridine-3-carboxamido)-4-methylphenyl)-1,2,4-oxadiazol-5-yl)methylcarbamate], the IC50 stood at 166 nM.

Turning to `COC(=O)NCc1nc(-c2ccc(C)c(NC(=O)c3cnc4ccc(C#N)cn34)c2)no1` [F168], the IC50 amounted to 220 nM.

For the molecule `Cc1ccc(-c2noc(CCC(C)(C)O)n2)cc1NC(=O)c1cnc2cc(F)ccn12` [F169], the IC50 worked out at 142 nM.

Regarding `COC(=O)NCc1nc(-c2ccc(C)c(NC(=O)c3cnc4cc(C(F)(F)F)ccn34)c2)no1` [F170], the IC50 stood at 462 nM.

With `Cc1ccc(-c2noc(C(CC(F)(F)F)N(C)C)n2)cc1NC(=O)c1cnc2ccccn12` (stereo not shown) [F171], the half-maximal inhibitory concentration (IC50) is 182 nM.

`CC(=O)OCc1nc(-c2ccc(C)c(NC(=O)c3cnc4ccccn34)c2)no1` [F172]: the IC50 worked out at 156 nM.

In the case of `Cc1ccc(-c2noc(C(C)(C)O)n2)cc1NC(=O)c1cnc2ccccn12` [F173], the IC50 was 281 nM.

In the case of `Cc1ccc(Nc2noc(C(C)C)n2)cc1NC(=O)c1cnc2ccccn12` [F174], the IC50 came to 284 nM.

As to `Cc1ccc(-c2noc(COCCOCC(F)(F)F)n2)cc1NC(=O)c1cnc2ccc(F)cn12` [F175], the IC50 is 104 nM.

On to `Cc1nc(-c2ccc(C)c(NC(=O)c3cnc4ccc(-c5csc(N6CCOCC6)n5)cn34)c2)no1` [F176], for which the 50% inhibitory concentration (IC50) was 226 nM.

In the case of `COC(=O)NCc1nc(-c2ccc(C)c(NC(=O)c3cnc4cc(CCC(C)=O)ccn34)c2)no1` [F177], the IC50 was determined as 240 nM.
